# Measurements as given in patent publication US8449864B2 (The Board of Trustees of the Leland Stanford Junior …, priority 2006, dated 2013).
# Tests used:
# NTR2 = NTR2 (Homo sapiens, UniProt O95665); details: cited from earlier work
# NTR1 = details: cited from earlier work
# PLCs containing PMCs = experiment: NT degradation by peritoneal lavage cells (PLCs) containing peritoneal mast cells; assay type: cell-based, mouse; details: BAPTA-AM 50 mM pre-treatment; NT 10 μM, 30 min at 37° C.
# Experimental: FIG. 5. Neurolysin and carboxypeptidase inhibitors prevent NT degradation by peritoneal mast cells. Kit^+/+ PLCs containing 5×10^4 PMCs were pre-treated for 15 min at 37° C. with one of the following protease inhibitors: chymostatin (chym, chymase inhibitor at 100 μM), CFp-Ala-Ala-Phe-pAB (CFp, […] at 10 μM only for PLCs), potato carboxypeptidase inhibitor (PCI, carboxypeptidase inhibitor at 10 μg/ml) and phosphodiepryl 03 (p03, neurolysin inhibitor at 100 nM for PLCs. Cells were then incubated with NT (10 μM) for 30 min at 37° C. Results are the percentage of NT remaining after incubation with cells compared to the starting concentration of NT (n=4-9 per group).
# FIG. 12. (a), PLCs containing 1×10^4 PMCs obtained from either wild type C57BL/6 mice, Ntsr1-deficient (Ntsr1^−/−) mice or Ntsr2-deficient (Ntsr2^−/−) mice were incubated for 2 h with ^3H-5-hydroxytryptamine (3H-serotonin) at 37° C. and stimulated for 15 min at 37° C. with either ET-1 (4 μM) or NT (10 μM). (b), PLCs containing 1×10^4 PMCs obtained from C57BL/6 mice were incubated for 2 h with ^3H-serotonin and stimulated for 15 min with either ET-1 (4 μM) or NT (10 μM). In a separate set of experiments, cells were pre-incubated with BAPTA-AM (Sigma) ([…], 15 min at […]) before the addition of the stimuli. Results are mean ±SEM of 3 experiments. (c), mMC-CPA activity was measured in supernatants obtained from Kit^+/+ PLCs containing 5×10^4 PMCs that were stimulated for 30 min at 37° C. with either ET-1 (4 μM) or NT (10 μM). (d), PLCs containing 5×10^4 PMCs from C57BL/6J mice were pre-treated for 15 min at 37° C. with BAPTA-AM ([…], a Ca^2+ chelator that can reduce MC degranulation) and then incubated with NT (10 μM) for 30 min at 37° C. Results are expressed as the percentage of NT remaining after incubation with cells compared to that in samples of NT incubated in vehicle alone at 37° C. (data were pooled from triplicate determinations in two independent experiments that gave similar results). (e), Expression of mRNA for NT-receptors in the AtT20 neuroendocrine cell line, the mast cell line C1.MC/C57.1, C57BL/6J BMCMCs, Kit^+/+ BMCMCs and peritoneal mast cells purified from Kit^+/+ mice (PMCs).
# NT, ET-1, C-reactive protein, and TNF measurements. Concentrations of NT, C-reactive protein, ET-1 and TNF were measured by ELISA (Bachem Peninsula Labs for NT; Biomedica, Vienna for C-reactive protein and ET-1; BD Biosciences for TNF). […] The detection limits for the ELISA kits were: 24 fmol/ml (NT), 0.048 fmol/ml (ET-1), 0.124 ng/ml (C-reactive protein) and […] (human TNF).
# PMCs = experiment: 3H-serotonin release from peritoneal mast cells; assay type: cell-based, mouse; details: BAPTA-AM, 30 min; ET-1 4 μM
# Excerpt: Results are mean ±SEM of 3 experiments. […] (data were pooled from triplicate determinations in two independent experiments that gave similar results).
# mMC-CPA [1] = experiment: shRNA knock-down of mMC-CPA protein in BMCMCs (Western blot); assay type: cell-based, mouse; details: Kit+/+ BMCMCs, lentiviral shRNA
# Excerpt: (§1) FIG. 9. Use of shRNA approach to knock-down NLN and mMC-CPA in BMCMCs. Protein expression for: (a), NLN and (b), mMC-CPA; and (c), mMC-CPA activity in Kit^+/+ BMCMCs treated with either empty vector or shRNAs. (d), mMCP-4 and mMCP-5 protein expression in Kit^+/+ BMCMCs treated with empty vector, NLN-shRNA or mMC-CPA-shRNA.
# Lentiviral vector production. pLentiLox 3.7 (pLL3.7), a vector engineered to co-express enhanced green fluorescent protein (GFP) as a reporter gene, that permits infected cells to be tracked by flow cytometry, was digested with Xhol and Hpal and the annealed oligos (SEQ ID NO. 3) 5′-t-[…]-ttcaagaga-[…]-ttttttc-3′ and (SEQ ID NO. 4) 5′-tcgagaaaaaa-[…]-tctcttgaa-[…]-a-3′ for mMC-CPA and (SEQ ID NO. 5) 5′-t-[…]-ttcaagaga-[…]-ttttttc-3′ (SEQ ID NO. 6) 5′-tcgagaaaaaa-[…]-tctcttgaa-[…]-a-3′ for NLN were ligated into pLL3.7 to yield a directed shRNA-producing vector. The 19 nt target sequences are indicated in capitals in the oligonucleotide sequence. Active viral stocks were created and concentrated as previously described. Briefly, 293T cells were transfected with the transfer vector plasmid pLL3.7-mMC-CPA or pLL3.7-NLN or pLL3.7 (empty vector), the VSV-G envelope-encoding plasmid pMD.G, and the packaging plasmid CMVΔR8.74 using the calcium phosphate method. […]
# mMC-CPA [2] = experiment: CPA enzymatic activity in shRNA-transduced BMCMCs; assay type: cell-based, mouse
# Experimental: as §1
# CPA enzymatic activity assay. CPA enzymatic activity was assessed by measuring reduction of absorbance of a chromogenic substrate (N-[4-Methoxyphenylazoformyl]-Phe-OH) (Bachem Peninsula Labs) specific for CPA as previously described.
# Kit+/+ BMCMCs [3] = experiment: Beta-hexosaminidase release of BMCMCs upon FcεRI cross-linking; assay type: cell-based, mouse; details: vs empty vector-treated cells
# Experimental: FIG. 10. BMCMCs treated with shRNAs degranulate after high affinity Fc receptor for IgE (FcεRI) cross-linking to the same extent than BMCMCs treated with empty vector. Beta-hexosaminidase release by Kit^+/+ BMCMCs treated with empty vector, NLN-shRNA for NLN or mMC-CPA-shRNA. Cells (1.25×10^5) were sensitized with IgE mAb to dinitro-phenol (DNP, 2 μg/ml) overnight at 37° C. and then were challenged with DNP-human serum albumin (DNP-HSA, 10 ng/ml) for 30 min at 37° C.
# Beta-hexosaminidase release. Beta-hexosaminidase was measured on an enzyme-linked immunosorbent assay “reader” that detects the hydrolysis product of p-nitrophenyl-N-acetyl-b-D-glucosamine (Sigma) used as a substrate.
# Kit+/+ BMCMCs [4] = experiment: NT degradation by A23187-activated shRNA-transduced BMCMCs; assay type: cell-based, mouse; details: A23187 5 μM; NT 10 μM, 30 min at 37° C.
# Experimental: FIG. 8. MC-associated neurolysin (NLN) contributes to the MCs' ability to reduce NT-induced hypotension. (a) Identification of NLN in the membrane and cytosol fractions of C1.MC/C57.1 MCs and C57BL/6J BMCMCs. (b) Degradation of NT (10 μM) by membrane and cytosol preparations obtained from Kit^+/+ BMCMCs (2×10^6 cells/preparation) that were pre-treated with either vehicle or with Pro-Ile (10 μM, 15 min at […]). Results are expressed as the percentage of NT remaining after incubation with membrane or cytosol preparations compared to that in samples of NT incubated in vehicle alone (n=3). […] Results are expressed as the percentage of NT remaining in the samples compared to that in samples of NT incubated in vehicle alone at 37° C. […] (e) Changes in MAP versus baseline levels (=“0”, measured 3 min after injection of 300 μl saline, i.p.) at various times after injection of NT (6 nmol in 300 μl saline, i.p.) in Kit^W/W-v mice which had been engrafted i.p. with Kit^+/+ BMCMCs treated with either empty vector (empty vector MCs→Kit^W/W-v), NLN-shRNA (NLN-shRNA MCs→Kit^W/W-v) or mMC-CPA-shRNA (mMC-CPA-shRNA MCs→Kit^W/W-v). […]
# NT, ET-1, C-reactive protein, and TNF measurements. Concentrations of NT, C-reactive protein, ET-1 and TNF were measured by ELISA (Bachem Peninsula Labs for NT; Biomedica, Vienna for C-reactive protein and ET-1; BD Biosciences for TNF). […]
# NTR2, sequence (O95665 whole entry, species assumed): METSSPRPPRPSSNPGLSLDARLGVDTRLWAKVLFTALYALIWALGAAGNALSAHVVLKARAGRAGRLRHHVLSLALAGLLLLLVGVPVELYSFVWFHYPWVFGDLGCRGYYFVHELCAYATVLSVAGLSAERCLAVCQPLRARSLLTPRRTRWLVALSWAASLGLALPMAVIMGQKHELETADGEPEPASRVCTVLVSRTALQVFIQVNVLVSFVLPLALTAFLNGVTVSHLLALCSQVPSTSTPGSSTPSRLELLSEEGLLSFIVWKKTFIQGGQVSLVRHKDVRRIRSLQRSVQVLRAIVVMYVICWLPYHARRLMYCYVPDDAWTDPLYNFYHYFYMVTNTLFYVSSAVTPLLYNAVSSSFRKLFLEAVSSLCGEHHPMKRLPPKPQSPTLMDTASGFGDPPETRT
molecule,measurement,setting,value
COc1cccc(OC)c1-c1cc(C(=O)NC2(C(=O)O)C3CC4CC(C3)CC2C4)nn1-c1ccc(C(=O)N(C)CCCN(C)C)cc1C(C)C (stereo not drawn) [SR142948A],affinity for NTR2,NTR2,nanomolar affinity
same,affinity for NTR1 relative to SR48692,NTR1,higher affinity for NTR1 than SR48692
same,affinity for NTR1,NTR1; different tissues and cells from various species,nanomolar affinity
CC(=O)OCOC(=O)CN(CC(=O)OCOC(C)=O)c1ccccc1OCCOc1ccccc1N(CC(=O)OCOC(C)=O)CC(=O)OCOC(C)=O [BAPTA-AM],ability of PMCs to degrade NT,PLCs containing PMCs,did not reduce the ability of PMCs to degrade NT
same,ET-1-induced PMC serotonin release,PMCs,markedly inhibited
"mMC-CPA-shRNA: lentivirus-delivered short hairpin RNA silencing mMC-CPA, SEQ ID NO. 3/4 (nucleic acid) chain 1: TGAAACAGTTTGATGTGAAATTCAAGAGATTTCACATCAAACTGTTTCTTTTTTC chain 2: TCGAGAAAAAAGAAACAGTTTGATGTGAAATCTCTTGAATTTCACATCAAACTGTTTCA",reduction in mMC-CPA protein expression level,mMC-CPA [1],90%
same,mMC-CPA enzymatic activity,mMC-CPA [2],substantially reduced
same,degranulation upon FcεRI cross-linking,Kit+/+ BMCMCs [3],degranulated to the same extent
same,ability to degrade NT after activation with A23187,Kit+/+ BMCMCs [4],significantly reduced ability to degrade NT
